Values of other authors in patent US20050004105A1, “Treatment for a attention-deficit hyperactivity disorder” (priority 2003, published 2005).
Counter-ions that a name gives are not always drawn. Like-named read-outs stand apart in the source and are kept apart here.

What was measured:
5-HT1B/1D receptor [1] = conditions: [3H]5-CT […] or 2 nM in cortex; exemplary protocol; read-out: Ki of reference compound, 5-HT1B/1D binding assay; cited from earlier work
5-HT1B/1D receptor [2] = conditions: [125I]iodocyanopindolol 0.15 nM in striatum; exemplary protocol; read-out: Ki of reference compound, 5-HT1B/1D binding assay; cited from earlier work
α1 receptor = conditions: rat forebrain membranes, [3H]7-MeOxy-prazosin; exemplary protocol; read-out: Ki of reference compound, α1 binding assay; cited from earlier work

NCCc1c[nH]c2ccc(C(N)=O)cc12 [5-CT, 5-carboxyamidotryptamine]
Ki (5-HT1B/1D receptor [1]): 0.7 to 1.1 nM

NCCc1c[nH]c2ccc(O)cc12 [5-HT]
Ki (5-HT1B/1D receptor [2]): ~13.8 nM

Cc1ccc(N(CC2=NCCN2)c2cccc(O)c2)cc1 [phentolamine mesylate]
Ki (α1 receptor): ~5.4 nM
